System: Streptococcus mutans (Smu) THF riboswitch aptamer (RNA, riboswitch) GGAGAGUAGAUGAUUCGCGUUAAGUGUGUGUGAAUGGGAUGUCGUCACACAACGAAGCGAGAGCGCGGUGAAUCAUUGCAUCCGCUCCA
Assay: ITC
Details: 70 mM NaCl, 2.5 mM MgCl2, 70 mM Na-HEPES pH 8.0, 1 mM DTT, 37 °C

KD [µM] | KD (PK site only) [µM] | SMILES
26 ± 3 |  | Nc1ncc2[nH]cnc2n1
 | 0.5 ± 0.1 | Nc1nc(N)c2[nH]cnc2n1
160 ± 20 |  | Nc1nc2c(N)ncnc2[nH]1
8 ± 1 |  | Nc1ncnc2[nH]cnc12

— paper PMC3935398 (2014)
